This test addresses Voltage-gated inwardly rectifying potassium channel KCNH2 (Homo sapiens, UniProt Q12809).

Sequence of Voltage-gated inwardly rectifying potassium channel KCNH2 (Q12809 whole entry): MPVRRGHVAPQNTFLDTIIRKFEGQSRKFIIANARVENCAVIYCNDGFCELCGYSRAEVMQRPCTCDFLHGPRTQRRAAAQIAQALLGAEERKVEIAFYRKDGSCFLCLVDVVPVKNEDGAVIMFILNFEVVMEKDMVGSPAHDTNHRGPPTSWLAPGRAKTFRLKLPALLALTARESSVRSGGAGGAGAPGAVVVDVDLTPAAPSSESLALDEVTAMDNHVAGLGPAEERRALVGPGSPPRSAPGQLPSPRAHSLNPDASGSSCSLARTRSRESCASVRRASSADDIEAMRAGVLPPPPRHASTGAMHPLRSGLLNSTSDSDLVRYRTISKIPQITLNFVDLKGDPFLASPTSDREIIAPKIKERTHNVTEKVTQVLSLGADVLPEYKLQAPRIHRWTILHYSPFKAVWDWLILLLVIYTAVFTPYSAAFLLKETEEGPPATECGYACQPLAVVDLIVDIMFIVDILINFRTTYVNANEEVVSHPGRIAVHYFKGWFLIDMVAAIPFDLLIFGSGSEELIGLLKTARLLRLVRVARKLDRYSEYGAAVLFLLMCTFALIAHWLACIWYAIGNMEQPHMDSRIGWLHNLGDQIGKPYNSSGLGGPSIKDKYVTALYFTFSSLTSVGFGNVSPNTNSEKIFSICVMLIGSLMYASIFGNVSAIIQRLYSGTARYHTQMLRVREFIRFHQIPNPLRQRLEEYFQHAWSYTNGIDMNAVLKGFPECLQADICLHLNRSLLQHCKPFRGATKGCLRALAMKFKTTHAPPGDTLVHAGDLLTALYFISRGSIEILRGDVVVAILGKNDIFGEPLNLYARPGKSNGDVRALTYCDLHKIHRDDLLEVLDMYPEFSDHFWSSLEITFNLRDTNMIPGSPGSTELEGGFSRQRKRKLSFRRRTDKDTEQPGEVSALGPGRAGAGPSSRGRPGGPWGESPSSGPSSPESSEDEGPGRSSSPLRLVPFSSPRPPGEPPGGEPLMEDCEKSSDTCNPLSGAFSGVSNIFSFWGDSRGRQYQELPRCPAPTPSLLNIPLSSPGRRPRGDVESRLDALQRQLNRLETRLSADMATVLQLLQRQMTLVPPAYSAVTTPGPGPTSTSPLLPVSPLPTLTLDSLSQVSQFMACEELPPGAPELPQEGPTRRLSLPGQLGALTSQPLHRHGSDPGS

As a reminder, the IC50 is the concentration that inhibits the measured activity by half. Higher therefore signals a need for much substance. Turning to `Cc1cc2c(s1)Nc1ccccc1N=C2N1CCN(C)CC1` [OLANZAPINE], the IC50 turned out to be 100 µM.
